We go through 7 compounds from paper PMC11433679, “Synthesis, Characterization, and Biological Evaluation of N-Methyl Derivatives of Norbelladine” (Molecules, 2024).

A short description of data set [1]: Cytotoxicity assay (Cell-Titer GLO, ATP levels, 72 h). In kind it is cell-based. Conditions: human; HCT-8 cells, 72 h treatment, 4–500 µM. The source says:
(§1) The human hepatocarcinoma Huh7 cell line (CVCL_0336) was maintained in Dulbecco’s Modified Eagle Medium (DMEM) supplemented with 10% fetal bovine serum (FBS) and 1% penicillin/streptomycin solution (PS, from GIBCO, Fisher Scientific, Toronto, ON, Canada). The human leukemia monocytic THP-1 (CVCL_0006) and adenocarcinoma HCT-8 cell lines (CVCL_2478) were maintained in Roswell Park Memorial Institute (RPMI) medium supplemented with 10% FBS or horse serum, respectively, and 1% PS. All reagents and antibiotics were purchased from GIBCO, Fisher Scientific, Toronto, ON, Canada). Cells were kept in an incubator at 37 °C and 5% CO2.
(§2) In total, 10 × 10^3 Huh7 cells/well, or 5 × 10^4 THP-1 or HCT-8 cells/well were plated in 96-well plates and incubated at 37 °C and 5% CO2. Compounds (4–500 µM, 2-fold dilutions) were added the next day and cytotoxicity was assessed 72 h later by measuring ATP levels with the Cell-Titer GLO assay kit (Promega, Madison, WI, USA). Cell-Titer GLO reagent was added to the plates previously equilibrated to room temperature for 30 min. Plates were mixed for 2 min and incubated for 10 min at room temperature. The luminescence signal was measured with a microplate reader (Synergy H1, Biotek, Dorval, QC, Canada). Viability percentage was calculated as the ratio of the signal of cells exposed to compounds to the signal of cells exposed to solvent (methanol). All experiments were performed at least twice. Median cytotoxic concentrations (CC50) were calculated using GraphPad prism 10.0.2 (GraphPad Software, San Diego, CA, USA).

Test in data set [2]: as above
Type of data set: cell-based, human. Conditions: human, 72 h treatment, 4–500 µM.
From the text: as §1, §2

In another data set the test system is Huh7 cells. Described as above. In kind it is cell-based, human. To be noted: 72 h treatment, 4–500 µM.
From the text: as §1, §2

In a further data set the test system is THP-1 cells. The description is as above. In kind it is cell-based, human. Conditions: 72 h treatment, 4–500 µM.
From the text: as §1, §2

Data set [3] concerns human coronavirus OC43 (HCoV-OC43). In words: Antiviral assay, HCoV-OC43 replication in HCT-8 cells (flow cytometry). To be noted: for EC50: Betacoronavirus 1, OC43, HCT-8, 72 h, read-out: EC50 OC-43; for SI OC-43 (selectivity index, ratio CC50/EC50): CC50 HCT-8 / EC50 OC-43. Type of data set: cell-based, human betacoronavirus OC43.
For a further data set, the system named is dengue virus (DENV). Kind of data set: microbe, parasite or virus in culture. In kind it is cell-based. To be noted: for SI DENV (selectivity index, ratio CC50/EC50): CC50 Huh7 / EC50 DENV; for EC50: Dengue virus, Huh-7, 72 h, DENVGFP in Huh7 cells, MOI 0.1, 3 days.
A further data set concerns pseudotyped HIV-1. In words: microbe, parasite or virus in culture. In kind it is cell-based, human immunodeficiency virus (HIV)-1. Conditions: for SI HIV-1 (selectivity index, ratio CC50/EC50): CC50 THP-1 / EC50 HIV-1; for EC50: Human immunodeficiency virus 1, THP-1, 72 h, read-out: EC50 HIV-1.
Data set [4] has as its target butyrylcholinesterase (BuChE) (Equus caballus, UniProt P81908). Kind of data set: Butyrylcholinesterase inhibition, colorimetric (DTNB, butyrylthiocholine substrate). Type of data set: biochemical, equine. Conditions: for inhibition at 500 µM: highest tested concentration; for IC50: butyrylthiocholine substrate; for fold increase in BuChE inhibition by N-methylation compared to non-N-methylated control: ratio of IC50 values. As for the experimental part:
(§3) Pharmacological properties specific to Alzheimer’s disease (AD) were tested on acetylcholinesterases (AChEs) from electric eels and butyrylcholinesterase (BuChE) from equine species using a colorimetric kit (ab138871, Abcam, Cambridge, UK), which measures enzyme activity and inhibition. The reaction was carried out in a final volume of 100 µL in 96-well microplates. […] A 5 µL reaction mixture containing equal amounts of acetylthiocholine/butyrylthiocholine (20X) and DTNB (20X) was then added to each well. Subsequently, the enzyme solution was added to a final concentration of 2 U/mL, and absorbance was measured at 412 nm in kinetic mode for 10 min using a microplate reader (Synergy H1, Biotek, Dorval, QC, Canada). DTNB (Bis(3-carboxy-4-nitrophenyl) disulfide, Ellman’s Reagent), acetylthiocholine iodide, and butyrylthiocholine iodide were obtained from Sigma-Aldrich (Oakville, ON, Canada). Galanthamine (50–0.05 µM) and rivastigmine (400–0.4 µM) were used as positive controls for the AChE and BuChE assays, respectively. Compounds showing inhibition during preliminary screenings were selected for further IC50 value assessment using serially diluted concentrations. All experiments were performed at least twice. Inhibition was calculated using the formula [24]:I = 100 × (1 − ΔAi/ΔA0), where ΔAi is the difference in absorbance between two time points in the presence of the inhibitor, and ΔA0 is the difference in absorbance between two-time points in the presence of DMSO or an appropriate solvent.

For data set [5], the target named is T1, acetylcholinesterase (AChE) (Electrophorus electricus, UniProt O42275).
T1 construct: purchased Abcam ab138871
T1 sequence (O42275 24-633): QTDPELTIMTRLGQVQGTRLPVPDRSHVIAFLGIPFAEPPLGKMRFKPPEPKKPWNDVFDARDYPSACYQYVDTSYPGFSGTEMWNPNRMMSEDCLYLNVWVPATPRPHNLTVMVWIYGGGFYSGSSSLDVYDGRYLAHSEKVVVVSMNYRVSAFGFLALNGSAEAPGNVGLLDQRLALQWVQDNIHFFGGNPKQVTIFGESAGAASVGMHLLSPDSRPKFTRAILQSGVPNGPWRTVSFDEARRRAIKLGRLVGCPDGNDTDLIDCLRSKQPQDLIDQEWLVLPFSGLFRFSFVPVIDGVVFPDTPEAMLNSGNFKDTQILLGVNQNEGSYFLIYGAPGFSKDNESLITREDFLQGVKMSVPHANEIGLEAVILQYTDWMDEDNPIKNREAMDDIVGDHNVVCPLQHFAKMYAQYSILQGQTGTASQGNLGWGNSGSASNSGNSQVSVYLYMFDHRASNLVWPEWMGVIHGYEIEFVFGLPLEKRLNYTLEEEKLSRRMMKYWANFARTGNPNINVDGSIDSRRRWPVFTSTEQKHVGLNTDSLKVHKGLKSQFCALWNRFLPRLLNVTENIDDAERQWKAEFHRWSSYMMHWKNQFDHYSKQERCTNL
In words: Acetylcholinesterase inhibition, colorimetric (DTNB, acetylthiocholine substrate). In kind it is biochemical, electric eel. Conditions: for inhibition at 500 µM: highest tested concentration; for IC50: Nd = >500 μM. As to the method: as §3

In a further data set the test system is AChE. On the set-up: method as in earlier work. Conditions: ref 19 (Vaněčková et al.); cited from earlier work.

Where “and” joins values, the source holds several entries; their conditions need not be identical. Equal values may be shown once.

Sequence of butyrylcholinesterase (BuChE) (P81908 whole entry): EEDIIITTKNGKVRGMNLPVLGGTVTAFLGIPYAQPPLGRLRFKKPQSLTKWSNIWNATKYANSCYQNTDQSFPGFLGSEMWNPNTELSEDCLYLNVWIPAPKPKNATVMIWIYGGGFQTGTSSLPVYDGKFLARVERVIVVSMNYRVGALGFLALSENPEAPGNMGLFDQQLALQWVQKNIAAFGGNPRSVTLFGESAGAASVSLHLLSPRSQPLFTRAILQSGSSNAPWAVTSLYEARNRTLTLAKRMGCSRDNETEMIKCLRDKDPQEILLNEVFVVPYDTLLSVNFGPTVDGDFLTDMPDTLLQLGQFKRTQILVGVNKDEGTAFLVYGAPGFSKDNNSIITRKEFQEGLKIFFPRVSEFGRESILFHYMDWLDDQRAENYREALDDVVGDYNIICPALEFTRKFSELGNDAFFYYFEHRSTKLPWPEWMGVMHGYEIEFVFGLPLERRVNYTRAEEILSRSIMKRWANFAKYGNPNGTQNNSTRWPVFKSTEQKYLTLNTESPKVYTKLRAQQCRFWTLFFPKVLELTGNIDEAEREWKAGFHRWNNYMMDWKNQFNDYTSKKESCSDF

Take `Oc1ccc(CCNCc2ccc(O)c(O)c2)cc1` [Norbelladine]: the values for the CC50 at 72 h in [1], in data set [2] (Huh7 cells) and in data set [2] (THP-1 cells) were more than 500 µM, 233 µM and 148 µM, respectively. The values for the 50% cytotoxic concentration (CC50) with Huh7 cells and in the data set with THP-1 cells were 233 µM and 148 µM, respectively. For the same compound, the EC50 is 55.7 µM in data set [3], 70.6 µM in the data set on dengue virus (DENV) and 66.9 µM in the data set on pseudotyped HIV-1. In addition, in data set [3], the “SI OC-43 (selectivity index, ratio CC50/EC50)” value was more than 8.98. Moreover, the “SI DENV (selectivity index, ratio CC50/EC50)” value with dengue virus (DENV) amounted to 3.30. Further, in the data set with pseudotyped HIV-1, the “SI HIV-1 (selectivity index, ratio CC50/EC50)” value amounted to 2.22. For the same compound, the results for the inhibition at 500 µM in data set [4] and in data set [5] were 95% and 24.5%, respectively. In addition, the figures for the IC50 in data set [4] and in data set [5] were 8 µM and more than 500 µM, respectively.
On to `COc1ccc(CNCCc2ccc(O)cc2)cc1OC` [3′,4′-O-dimethylnorbelladine], for which the CC50 at 72 h in data set [1], in data set [2] (Huh7 cells) and in [2] (THP-1 cells) was more than 500 µM each time. Further, the EC50 in [3] was 84.7 µM; in the data set on dengue virus (DENV), 137 µM; with pseudotyped HIV-1, 190 µM. Moreover, the “SI OC-43 (selectivity index, ratio CC50/EC50)” value in data set [3] is more than 5.91. For the same compound, the “SI DENV (selectivity index, ratio CC50/EC50)” value in the data set on dengue virus (DENV) is given as more than 3.64. For the same compound, the “SI HIV-1 (selectivity index, ratio CC50/EC50)” value with pseudotyped HIV-1 is reported as more than 2.63. Further, the results for the inhibition at 500 µM in data set [4] and in data set [5] were 94% and 37%, respectively. Also, the IC50 in data set [4] was 108 µM; in data set [5], more than 500 µM.
On to `COc1ccc(CCN(C)Cc2ccc(O)c(OC)c2)cc1` [4′-O-demethylbelladine], for which the anti-AChE activity result in the data set on AChE is “weak”.
On to `COc1cc(CNCCc2ccc(O)cc2)ccc1O` [3′-O-methylnorbelladine], for which the CC50 at 72 h in data set [1], in data set [2] (Huh7 cells) and in data set [2] (THP-1 cells) was more than 500 µM in each case. The EC50 in [3] was found to be 74.5 µM; in the data set with dengue virus (DENV) it was 138 µM; in the data set with pseudotyped HIV-1, 177 µM. The “SI OC-43 (selectivity index, ratio CC50/EC50)” value in data set [3] was more than 6.71. The “SI DENV (selectivity index, ratio CC50/EC50)” value in the data set with dengue virus (DENV) is listed as more than 3.62. In the data set on pseudotyped HIV-1, the “SI HIV-1 (selectivity index, ratio CC50/EC50)” value is reported as more than 2.83. The inhibition at 500 µM is 96% in data set [4] and 10% in data set [5]. The results for the IC50 in data set [4] and in data set [5] were 27.5 µM and more than 500 µM, respectively.
On to `COc1ccc(CNCCc2ccc(O)cc2)cc1O` [4′-O-methylnorbelladine], for which the CC50 at 72 h in [1], in data set [2] (Huh7 cells) and in data set [2] (THP-1 cells) was more than 500 µM each time. Besides, the EC50 in data set [3] was determined as 63 µM; in the data set on dengue virus (DENV), 79.6 µM; in the data set with pseudotyped HIV-1, 163 µM. The “SI OC-43 (selectivity index, ratio CC50/EC50)” value in data set [3] is given as more than 7.93. Moreover, the “SI DENV (selectivity index, ratio CC50/EC50)” value with dengue virus (DENV) is more than 6.28. The “SI HIV-1 (selectivity index, ratio CC50/EC50)” value with pseudotyped HIV-1 is reported as more than 3.06. The values for the inhibition at 500 µM in data set [4] and in data set [5] were 99% and 33.6%, respectively. The results for the IC50 in data set [4] and in data set [5] were 16.1 µM and more than 500 µM, respectively.
Take `CN(CCc1ccc(O)cc1)Cc1ccc(O)c(O)c1` [N-methylnorbelladine]: the CC50 at 72 h in [1] was more than 500 µM; in data set [2] (Huh7 cells), 386 µM; in data set [2] (THP-1 cells), 227 µM. For the same compound, the CC50 in the data set on Huh7 cells was 386 µM; with THP-1 cells, 227 µM. Moreover, the results for the EC50 (in [3]; in the data set on dengue virus (DENV); with pseudotyped HIV-1) were 66.8 µM, 67.7 µM and 42.3 µM, respectively. Besides, in data set [3], the “SI OC-43 (selectivity index, ratio CC50/EC50)” value is reported as more than 7.49. Besides, the “SI DENV (selectivity index, ratio CC50/EC50)” value with dengue virus (DENV) amounted to 5.70. The “SI HIV-1 (selectivity index, ratio CC50/EC50)” value in the data set with pseudotyped HIV-1 is on record as 5.36. The inhibition at 500 µM turned out to be 96% in [4] and 31.2% in data set [5]. The IC50 is 3.94 µM and 4 µM in data set [4]; more than 500 µM in data set [5]. Besides, the “fold increase in BuChE inhibition by N-methylation compared to non-N-methylated control” value in data set [4] came to 2 fold.
For `COc1ccc(CN(C)CCc2ccc(O)cc2)cc1O` [4′-O,N-dimethylnorbelladine, 5-(((4-hydroxyphenethyl)(methyl)amino)methyl)-2-methoxyphenol], the CC50 at 72 h in data set [1] was more than 500 µM. Also, the CC50 at 72 h in [2] (Huh7 cells) is 460 µM. Moreover, the CC50 at 72 h in data set [2] (THP-1 cells) was more than 500 µM. Besides, in data set [3], the EC50 turned out to be 42.4 µM and the “SI OC-43 (selectivity index, ratio CC50/EC50)” value is more than 11.80. Besides, in the data set with dengue virus (DENV), the “SI DENV (selectivity index, ratio CC50/EC50)” value was 4.81 and the EC50 is 95.8 µM. In addition, in the data set with pseudotyped HIV-1, the “SI HIV-1 (selectivity index, ratio CC50/EC50)” value is reported as more than 4.06 and the EC50 was determined as 123 µM. For the same compound, in data set [4], the inhibition at 500 µM stood at 99%, the IC50 came to 10.4 µM and the “fold increase in BuChE inhibition by N-methylation compared to non-N-methylated control” value worked out at 1.5 fold. In addition, in data set [5], the inhibition at 500 µM came to 43.6% and the IC50 was more than 500 µM.
